Series [1] can be described thus: in vitro. As to conditions: human.
Series [2] concerns HIV-1 wild-type reference strain NL4-3. Kind of series: Anti-HIV-1 BiCycle Assay (H9 cells, then TZM-bl reporter cells). The settings on record: Human immunodeficiency virus 1, NL43, H9, read-out: IC50, half-maximal compound concentration inhibiting the 50% of HIV-1 replication. Format: cell-based.
The nature of series [3]: in vitro. The settings on record: human. This is another data set of the same source.
The test system of a further series is SARS-CoV-2. Kind of series: microbe, parasite or virus in culture. It is filed as cell-based. The settings on record: for SI, Selectivity Index (ratio between CC50 and IC50): Caco-2 cells, SARS-CoV-2; for IC50: Severe acute respiratory syndrome coronavirus 2, Caco-2, 72 h, read-out: IC50, half-maximal compound concentration inhibiting 50% of the SARS-CoV-2 replication.

Series [4] is described as follows: Aqueous solubility in Mill-Q H2O. As to conditions: water, thermodynamic from solid.
Method: Chromatographic separations were obtained using a Phenomenex Kinetex C18-100 Å column (150 × 4.6 mm) with 5 µm particle size and gradient elution with a binary solution; (eluent A: H2O acidified with formic acid (FA) 0.1% v/v, eluent B: ACN/MeOH 1:1 v/v) at room temperature. The analysis started with 5% of B (from t = 0 to t = 1 min), then B was increased to 95% (from t = 1 to t = 10 min), then kept at 95% (from t = 10 to t = 15 min) and finally returned to 5% of eluent A in one minute. The instrument worked in positive mode and the UV detector operated at 254 nm.
One mg of each compound was added with 1 mL of Mill-Q H2O. The samples were maintained under shaking at room temperature (RT) overnight. The suspensions were filtered using a 0.45 µm nylon filter (Acrodisc), and the amount of solubilized compound was determined with the HPLC-UV-MS method above reported. The quantification of the solubilized compound was created with the appropriate calibration curve realized with stock solutions in DMSO (0.1–100 µg/mL); the limit of detection (LOD) was quantified at 0.1 µg/mL.
Another series can be described thus: Human plasma stability. Format: in vitro ADME. The settings on record: 100 µM. The procedure: Finally, further studies were performed in order to investigate the stability in the presence of human plasma. All compounds were incubated at the fixed concentration of 100 µM in plasma for 24 h.
A DMSO stock solution of each compound was incubated in triplicate in the presence of human plasma and HEPES buffer (25 mM, 140 mM NaCl, pH 7.4) at the final concentration of 100 µM at 37 °C under shaking. At the selected time point of 0 and 24 h, 50 µL of the mixture was collected, treated with 1.0 mL of cold ACN, and centrifuged at 5000 rpm for 10 min. The supernatant was collected, and the amount of unmodified compound was quantified with the HLPC-UV/MS method above reported. Calculations of modified compounds were made using time zero as 100% of the unmodified compound.

A short description of series [5]: Parallel artificial membrane permeability assay (PAMPA). It is filed as in vitro ADME. As to conditions: pH 7.4, 5 h; for Papp at 5 h, 0.5 mM: room temperature, read-out: Apparent Permeability (Papp). As to the method:
The trend appreciated in terms of solubility was confirmed by results obtained from permeability studies. In fact, parallel artificial membrane permeability assay (PAMPA) underlined how the low solubility of compounds 6 and 7 was accompanied by a major tendency of these derivatives to interact with the lipidic artificial membrane where they probably remained entrapped.
In order to assess the apparent permeability of selected compounds, a stock solution in DMSO of each derivative was prepared at the final concentration of 1 mM. By diluting the stocks 1:1 v/v with phosphate buffer (PBS 25 mM, pH 7.4), donor solutions were made. To mimic the gastrointestinal (GI) phospholipidic bilayer, 10 µL of a 1% w/v dodecane solution of phosphatidylcholine (PC) was used to coat filters. The acceptor solution, made of 1:1 v/v DMSO/PBS, was added to each well (300 µL), while the donor solution (150 µL) was added to each well of the filter plate. The sandwich plates were assembled and incubated for 5 h at room temperature. At the time point, the plates were separated, and the amount of compound passed through the phospholipid bilayer was measured by UV/LC-MS. Finally, apparent permeability (Papp) and membrane retention (MR%) were calculated as previously reported by us.

Another series concerns HIV. Set-up: method as in PMID 21698775. As to conditions: PBMC; read-out: EC50, antiretroviral effect; cited from earlier work.
The subject of series [6] is peripheral blood mononuclear cells (PBMC). Also noted: method as in PMID 21698775. The settings on record: read-out: CC50, cytotoxicity; cited from earlier work.
For a further series, the target named is human helicase DDX3X (Homo sapiens, UniProt O00571). The experiment in a line: DDX3X ATPase inhibition, ADP-Glo assay. Format: biochemical. As to the method:
For the more promising compound, derivative 10a, the inhibition of the ATPase activity of the human helicase DDX3X was evaluated. Different concentrations of the compound were incubated with 1 µM of purified recombinant DDX3X and ATPase activity was determined with the ADP-glo assay.
The ATPase enzymatic activity of DDX3X was determined by the ADP-Glo kit (Promega, MD, USA). The reaction was performed in ATPase buffer (20 mM Tris–HCl pH 8, 2 mM DTT, 70 mM KCl, 2 mM MgCl2, 5% DMSO) pre-incubating 1 µM DDX3X with different concentrations of inhibitor for 10 min at 25 °C. ATPase reaction started with the addition of 1 mM ATP. After 30 min of incubation at 25 °C, the assay was conducted following the manufacturer’s instructions. The ATPase enzymatic activity was analyzed using a 384-wells plate and the GloMax Discover Microplate Reader (Promega, MD, USA) and expressed as a percentage of inhibition calculated from the light units obtained.
A general note: In ADP-Glo the light output rises with the ADP produced.

“And” between values parts separate entries of the source, which are not always exact repeats. Equal entries are not always repeated.

Chain of human helicase DDX3X (O00571 whole entry): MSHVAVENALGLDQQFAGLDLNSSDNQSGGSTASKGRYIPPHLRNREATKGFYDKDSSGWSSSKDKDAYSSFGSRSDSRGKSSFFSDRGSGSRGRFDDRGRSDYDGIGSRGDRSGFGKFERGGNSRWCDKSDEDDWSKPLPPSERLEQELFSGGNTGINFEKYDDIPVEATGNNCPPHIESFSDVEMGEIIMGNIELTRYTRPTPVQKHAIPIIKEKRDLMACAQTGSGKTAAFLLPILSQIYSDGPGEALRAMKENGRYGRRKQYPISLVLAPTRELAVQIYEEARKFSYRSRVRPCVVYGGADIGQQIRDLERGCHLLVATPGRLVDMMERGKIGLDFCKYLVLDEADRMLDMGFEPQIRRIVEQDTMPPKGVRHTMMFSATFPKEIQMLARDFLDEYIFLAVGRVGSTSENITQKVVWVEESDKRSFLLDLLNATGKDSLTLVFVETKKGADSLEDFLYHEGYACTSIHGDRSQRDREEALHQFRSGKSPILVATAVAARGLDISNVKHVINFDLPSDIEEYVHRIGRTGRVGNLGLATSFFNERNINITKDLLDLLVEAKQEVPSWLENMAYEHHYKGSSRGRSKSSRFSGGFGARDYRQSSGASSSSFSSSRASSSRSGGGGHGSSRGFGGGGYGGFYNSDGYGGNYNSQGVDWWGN

`Cc1nnc(C(=O)NC(C)(C)c2nc(C(=O)NCc3ccc(F)cc3)c(O)c(=O)n2C)o1` [Raltegravir, reference compound] came in with a CC50 in the series “in vitro [1]” of over 100 µM. The IC50 in series [2] was 0.0028 ± 0.0017 µM.

With `CCC(CC)COC(=O)[C@H](C)N[P@](=O)(OC[C@H]1O[C@@](C#N)(c2ccc3c(N)ncnn23)[C@H](O)[C@@H]1O)Oc1ccccc1` [Remdesivir, reference compound], the CC50 in the series “in vitro [3]” is 94.9 µM. In the series with SARS-CoV-2, the “SI, Selectivity Index (ratio between CC50 and IC50)” value was 1356; the IC50 is 0.07 ± 0.04 µM.

The solubility is how much of the substance goes into solution per volume. A high value points to much dissolved substance. As usually defined, the Papp is a coefficient for how fast a substance crosses the barrier. For the compound `CC(=O)Nc1ccc(/C=N/Nc2nc(N3CCOCC3)nc(N3CCOCC3)n2)cc1` [10b], the solubility in series [4] is 3.46 µg/mL and 8.13 µM. Also, the “Plasma Stability % ± SD” value in the series “Human plasma stability” (24 h, 37 °C) worked out at 98.41 ± 4.69%. For the same compound, the “Plasma Stability % ± SD” value in the series “Human plasma stability” (time 0 h (set as 100%)) turned out to be 100.00 ± 0.24%. Also, in series [5], the “Membrane retention (MR)” value stood at 9.8% and the Papp at 5 h, 0.5 mM came out at 9.7 ×10⁻⁶ cm/s.

For orientation: EC50 means the midpoint of the concentration-response curve. Take `Oc1ccccc1C=NNc1nc(Nc2ccc(F)cc2)nc(Nc2ccc(F)cc2)n1` [compound 7]: the CC50 in the series “in vitro [3]” is 0.8 µM; in series [6], 8 µM. Further, the EC50 in the series on HIV was 2 µM. Besides, the solubility in series [4] was under 0.1 µg/mL. Further, the “Plasma Stability % ± SD” value stood at 99.56 ± 3.78% in the series “Human plasma stability” (24 h, 37 °C) and 100.00 ± 0.28% in “Human plasma stability” (time 0 h (set as 100%)). Also, the “Membrane retention (MR)” value in [5] is given as 15.5%. Also, the Papp at 5 h, 0.5 mM in [5] was 4.58 ×10⁻⁶ cm/s.

In the case of `Oc1ccccc1C=NNc1nc(Nc2ccc(F)cc2)nc(N2CCOCC2)n1` [compound 6], the CC50 in the series “in vitro [3]” is 3 µM; in series [6], 10 µM. For the same compound, the EC50 in the series on HIV is 2.5 µM. In addition, in [4], the solubility was under 0.1 µg/mL. For the same compound, the “Plasma Stability % ± SD” value in the series “Human plasma stability” (24 h, 37 °C) is reported as 98.78 ± 4.05%; in the series “Human plasma stability” (time 0 h (set as 100%)), 100.00 ± 0.19%. For the same compound, the “Membrane retention (MR)” value in [5] is listed as 28.7%. In [5], the Papp at 5 h, 0.5 mM came to 4.74 ×10⁻⁶ cm/s.

As to `Oc1ccccc1/C=N/Nc1nc(N2CCOCC2)nc(N2CCOCC2)n1` [10a], the IC50 was 6.6 µM against human helicase DDX3X and 12.1 µM with SARS-CoV-2. The solubility in series [4] was 3.23 µg/mL and 8.51 µM. Besides, the “SI, Selectivity Index (ratio between CC50 and IC50)” value in the series with SARS-CoV-2 is over 33.1. The “Plasma Stability % ± SD” value in “Human plasma stability” (24 h, 37 °C) is on record as 98.48 ± 4.02%; in “Human plasma stability” (time 0 h (set as 100%)), 100.00 ± 0.28%. For the same compound, in series [5], the “Membrane retention (MR)” value turned out to be 4.3%. In addition, the Papp at 5 h, 0.5 mM in series [5] turned out to be 7.89 ×10⁻⁶ cm/s.

On to `Cc1cccc(/C=N/Nc2nc(N3CCOCC3)nc(N3CCOCC3)n2)c1` [10c], for which the solubility in [4] is 4.5 µg/mL and 11.7 µM. The CC50 in the series “in vitro [1]” came to 74 µM. The “Plasma Stability % ± SD” value in the series “Human plasma stability” (24 h, 37 °C) turned out to be 99.52 ± 3.45%. Moreover, the “Plasma Stability % ± SD” value in “Human plasma stability” (time 0 h (set as 100%)) stood at 100.00 ± 0.16%. Further, in series [5], the “Membrane retention (MR)” value is reported as 4.9% and the Papp at 5 h, 0.5 mM is 9.78 ×10⁻⁶ cm/s.
